Test results: US10588879B2, “Treatment of age-related macular degeneration” (Aurin Biotech Inc., priority 2011, dated 2020)
Like-named read-outs stand apart in the source and are kept apart here.

What was measured:
[1] = tested on: classical complement pathway; experiment: CH50 assay, human serum, sensitized sheep red blood cell hemolysis; format: cell-based; conditions: sensitized sheep red blood cells, 1 hour at 37° C., read-out: IC50, inhibition of human complement-mediated red blood cell hemolysis
Protocol: To evaluate the strength of blockade of the classical complement pathway by the low molecular weight products of the aurin tricarboxylic acid complex, (i.e. ATA plus AQA plus AHA), the standard CH50 assay was employed. Sheep red blood cells were sensitized by incubation overnight with rabbit anti sheep red blood cell antibody. Then dilutions of serum, with and without various amounts of the low molecular weight aurin tricarboxylic acid fraction (ATAC), were incubated with the sensitized red blood cells for 1 hour at 37° C. The incubates were centrifuged at 5,000 rpm for 10 min. The hemoglobin released into the serum from red blood cells that had been destroyed by complement attack, was determined by reading the optical density (OD) at 405 nm. As a positive control, red blood cells were 100% lysed with water, and as a negative control, no serum was added to the incubate.

[2] = molecular target: T1, membrane attack complex (addition of C9 to C5b678) (Homo sapiens, UniProt P02748); experiment: Western blot variation of CH50 assay: stage of complement blockade; format: biochemical; conditions: human serum diluted 16 fold, pre-treated 30 min; blots with antibodies to C6, C7, C8, C9
T1 construct: from tissue; host or cells: normal human serum (with antibody-sensitized sheep red blood cells)
T1 sequence (P02748 22-559, one chain of several): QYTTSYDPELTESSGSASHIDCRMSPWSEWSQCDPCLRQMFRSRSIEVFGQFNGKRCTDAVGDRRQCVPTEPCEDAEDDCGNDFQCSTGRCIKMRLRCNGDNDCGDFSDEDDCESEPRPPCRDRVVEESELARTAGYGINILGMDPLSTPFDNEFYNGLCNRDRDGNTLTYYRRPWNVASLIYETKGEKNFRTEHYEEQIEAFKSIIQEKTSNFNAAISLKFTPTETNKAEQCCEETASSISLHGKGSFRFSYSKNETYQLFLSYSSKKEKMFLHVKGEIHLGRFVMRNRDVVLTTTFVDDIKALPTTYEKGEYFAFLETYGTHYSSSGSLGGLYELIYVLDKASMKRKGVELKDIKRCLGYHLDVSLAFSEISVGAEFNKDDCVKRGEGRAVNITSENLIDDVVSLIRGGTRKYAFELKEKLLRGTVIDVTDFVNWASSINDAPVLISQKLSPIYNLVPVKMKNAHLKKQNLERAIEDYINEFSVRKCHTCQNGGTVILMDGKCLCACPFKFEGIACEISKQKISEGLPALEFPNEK
Protocol: Normal human serum was pre-treated with aliquots of aqueous solutions of ATA, AQA, AHA and ATAC prior to adding sheep red blood cells sensitized to human complement. The reaction mixtures were incubated at 37° C. for 1 h. Aliquots were loaded on 10% polyacrylamide gels and subjected to SDS-PAGE. Proteins were transferred to membranes and developed with appropriate primary antibodies to complement proteins (Table 1): FIG. 4A: Western blots of membranes developed with antibodies to C1q, C3, C4 and C5. Lane 1, untreated serum; lane 2, serum with red blood cells added; lane 3 serum with red blood cells protected with ATAC. Notice that in untreated serum, bands for C1q, C3, C4, and C5 were readily detected. In lanes 2 and 3, the activated products C3d, C4d, and C5a were detected indicating opsonization had taken place. […] It can be seen that C5b-9 is […] detected upon probing with C6, C7, C8 and C9, thus establishing that the ATAC block was at the C9 stage. […]
To determine at which stage of assembly of the membrane attack complex was being blocked, additional analyses were carried. […] The C6 antibody detected C5b6, C5b67, and C5b678. The C7 antibody detected C5b67 and C5b678, while the C8 antibody detected C5b678. […]

| Molecule | IC50 [1] [nM] | stage at which membrane attack complex formation is arrested [2] | IC50 ([1]; Erythrocyte) [nM] |
| --- | --- | --- | --- |
| 5,5′-((3-carboxy-5-((3-carboxy-4-oxocyclohexa-2,5-dien-1-ylidene)methyl)-4-hydroxybenzyl)-4-hydroxyphenyl)methylene)bis(2-hydroxybenzoic acid) [AHA] | 559 | becomes arrested at the C8 stage |  |
| O=C(O)C1=CC(=Cc2cc(C(c3ccc(O)c(C(=O)O)c3)c3ccc(O)c(C(=O)O)c3)cc(C(=O)O)c2O)C=CC1=O [AQA] | 576 | becomes arrested at the C8 stage |  |
| O=C(O)C1=CC(=C(c2ccc(O)c(C(=O)O)c2)c2ccc(O)c(C(=O)O)c2)C=CC1=O [ATA, 5,5′-((3-carboxy-4-oxocyclohexa-2,5-dienn-1-ylidene)methylene)bis(2-hydroxybenzoic acid)] |  |  | 544 |
